Results as given in patent US20230126447A1, “OCULAR DRUG DEPOT FOR COMPLEMENT-MEDIATED DISORDERS” (priority 2020, published 2023).
Where two headings read alike, the source gives them in different places.

Assay: Ocular tissue distribution and pharmacokinetics, 7.5 and 15 mg/kg oral, pigmented Dutch Belted rabbits (Example 7)
Type: in vivo
Experimental: For Group 1, two animals/time point were sacrificed via an overdose of sodium pentobarbital at approximately 1, 6, 12, 24, 96, 168, and 240 hours postdose. Blood (approximately 2 mL) was collected from all animals at sacrifice into tubes containing K2EDTA via exsanguination (cardiac puncture).
For Groups 2 through 4, blood (approximately 2 mL) was collected via a jugular vein using a syringe and needle and was transferred into tubes containing K2EDTA at approximately 12 hours after the a.m. dose on Day 15 from the two animals designated for sacrifice at approximately 240 hours after the a.m. dose on Day 15.
For Groups 2 through 4, two animals/group/time point were sacrificed via an overdose of sodium pentobarbital prior to dosing on Day 15 and at approximately 1, 6, 24, 96, 168, and 240 hours after the a.m. dose on Day 15. Blood (approximately 2 mL) was collected from all animals at sacrifice into tubes containing K2EDTA via exsanguination (cardiac puncture).
Blood was maintained on wet ice, in chilled cryoracks, or at approximately 5° C. prior to centrifugation to obtain plasma. Centrifugation began within 1 hour of collection (Deviation). Plasma was placed into 96-well tubes with barcode labels. Plasma was maintained on dry ice prior to storage at approximately −70° C.
At the time of sacrifice, both eyes were enucleated, and the following tissues were collected. Each eye was flash-frozen in liquid nitrogen for 15 to 20 seconds. The enucleated eye was placed on dry ice or stored at approximately −70° C. for at least 2 hours. Within approximately 3 days, the frozen matrices were collected as right and left eyes for each matrix into the specific tube type listed.
At the time of frozen collection, the ocular tissues were rinsed with saline and blotted dry (as appropriate), weighed, and placed on dry ice. All ocular tissues were collected as single samples.

[1] = Dutch Belted, rabbit, Retina (OU), male DB rabbits, Group 1, Day 1, 7.5 mg/kg single oral dose
[2] = Dutch Belted, rabbit, plasma, male DB rabbits, Group 1, Day 1, 7.5 mg/kg single oral dose
[3] = ICB (OU), male DB rabbits, Group 1, Day 1, […] single oral dose
[4] = ICB (OU), male DB rabbits, Group 2, Day 15, […] BID oral (15 mg/kg/day)
[5] = ICB (OU), male DB rabbits, Group 3, Day 15, 15 mg/kg/dose BID oral (30 mg/kg/day)
[6] = Retina (OU), male DB rabbits, Group 1, Day 1, […] single oral dose
[7] = Retina (OU), male DB rabbits, Group 2, Day 15, […] BID oral (15 mg/kg/day)
[8] = Retina (OU), male DB rabbits, Group 3, Day 15, 15 mg/kg/dose BID oral (30 mg/kg/day)
[9] = male, Dutch Belted, rabbit, choroid-retinal pigment epithelium (choroid-RPE), po, 15 mg/kg, Choroid-RPE (OU), male DB rabbits, Group 3, Day 15, 15 mg/kg/dose BID oral (30 mg/kg/day)
[10] = male, Dutch Belted, rabbit, plasma, po, 15 mg/kg, plasma, male DB rabbits, Group 3, Day 15, 15 mg/kg/dose BID oral (30 mg/kg/day)
[11] = male, Dutch Belted, rabbit, plasma, po, […], plasma, male DB rabbits, Group 1, Day 1, […] single oral dose
[12] = male, Dutch Belted, rabbit, plasma, po, […], plasma, male DB rabbits, Group 2, Day 15, […] BID oral (15 mg/kg/day)
[13] = plasma, male DB rabbits, Group 1, Day 1, […] single oral dose
[14] = plasma, male DB rabbits, Group 2, Day 15, […] BID oral (15 mg/kg/day)
[15] = plasma, male DB rabbits, Group 3, Day 15, 15 mg/kg/dose BID oral (30 mg/kg/day)

## CC(=O)c1nn(CC(=O)N2C[C@H](F)C[C@H]2C(=O)Nc2cccc(Br)n2)c2ccc(-c3cnc(C)nc3)cc12 [Compound 1, (2S,4R)-1-(2-(3-Acetyl-5-(2-methylpyrimidin-5-yl)-1H-indazol-1-yl)acetyl)-N-(6-bromopyridin-2-yl)-4-fluoropyrrolidine-2-carboxamide]
[1]
  MRT last: 2.7 h
  Tmax: 1 h
Dutch Belted, rabbit, Retina (OU), male DB rabbits, Group 3, Day 15, 15 mg/kg/dose BID oral (30 mg/kg/day)
  Tmax: 1 h
[2]
  MRT last: 2.67 h
  Tmax: 1 h
Dutch Belted, rabbit, plasma, male DB rabbits, Group 1, Day 1, 7.5 mg/kg single oral dose, read-out: AUC0-inf
  AUC(0-inf): 1590 ng·h/mL
Dutch Belted, rabbit, plasma, male DB rabbits, Group 3, Day 15, 15 mg/kg/dose BID oral (30 mg/kg/day)
  Tmax: 1 h
[3]
  AUC0-12: 2560 ng·h/g
  AUC(0-24): 3460 ng·h/g
  AUC(0-t): 3460 ng·h/g
  Ctrough: 119 ng/g
  DN AUC0-12: 341 (h*ng/g)/(mg/kg/dose)
  DN AUC0-24: 462 (h*ng/g)/(mg/kg/day)
  DN Cmax: 57.9 (ng/g)/(mg/kg/day)
[4]
  AUC0-12: 7860 ng·h/g
  AUC(0-24): 11900 ng·h/g
  AUC(0-t): 11900 ng·h/g
  Ctrough: 484 ng/g
  DN AUC0-12: 1050 (h*ng/g)/(mg/kg/dose)
  DN AUC0-24: 1580 (h*ng/g)/(mg/kg/day)
  DN Cmax: 126 (ng/g)/(mg/kg/day)
[5]
  AUC0-12: 13900 ng·h/g
  AUC(0-24): 21300 ng·h/g
  AUC(0-t): 21300 ng·h/g
  Ctrough: 780 ng/g
  DN AUC0-12: 925 (h*ng/g)/(mg/kg/dose)
  DN AUC0-24: 1420 (h*ng/g)/(mg/kg/day)
  DN Cmax: 136 (ng/g)/(mg/kg/day)
[6]
  AUC0-12: 765 ng·h/g
  AUC0-240: 864 ng·h/g
  AUC(0-24): 864 ng·h/g
  AUC(0-t): 765 ng·h/g
  Ctrough: 16.5 ng/g
  DN AUC0-12: 102 (h*ng/g)/(mg/kg/dose)
  DN AUC0-24: 115 (h*ng/g)/(mg/kg/day)
  DN Cmax: 25.1 (ng/g)/(mg/kg/day)
[7]
  AUC0-12: 1710 ng·h/g
  AUC0-240: 6070 ng·h/g
  AUC(0-24): 2450 ng·h/g
  AUC(0-t): 6070 ng·h/g
  Ctrough: 80.0 ng/g
  DN AUC0-12: 227 (h*ng/g)/(mg/kg/dose)
  DN AUC0-24: 327 (h*ng/g)/(mg/kg/day)
  DN Cmax: 40.8 (ng/g)/(mg/kg/day)
[8]
  AUC0-12: 11500 ng·h/g
  AUC0-240: 16100 ng·h/g
  AUC(0-24): 6460 ng·h/g
  AUC(0-t): 16100 ng·h/g
  Ctrough: 123 ng/g
  DN AUC0-12: 325 (h*ng/g)/(mg/kg/dose)
  DN AUC0-24: 430 (h*ng/g)/(mg/kg/day)
  DN Cmax: 85.7 (ng/g)/(mg/kg/day)
male, Dutch Belted, rabbit, choroid-RPE (choroid-retinal pigment epithelium), po, […], Choroid-RPE (OU), male DB rabbits, Group 1, Day 1, […] single oral dose
  Cmax: 726 ng/g
[9]
  Cmax: 3970 ng/g
  half-life: 76.2 h
male, Dutch Belted, rabbit, choroid-retinal pigment epithelium (choroid-RPE), po, […], Choroid-RPE (OU), male DB rabbits, Group 1, Day 1, […] single oral dose
  half-life: 58.9 h
male, Dutch Belted, rabbit, choroid-retinal pigment epithelium (choroid-RPE), po, […], Choroid-RPE (OU), male DB rabbits, Group 2, Day 15, […] BID oral (15 mg/kg/day)
  Cmax: 2000 ng/g
male, Dutch Belted, rabbit, iris-ciliary body (ICB), po, 15 mg/kg, ICB (OU), male DB rabbits, Group 3, Day 15, 15 mg/kg/dose BID oral (30 mg/kg/day)
  Cmax: 2050 ng/g
male, Dutch Belted, rabbit, iris-ciliary body (ICB), po, […], ICB (OU), male DB rabbits, Group 1, Day 1, […] single oral dose
  Cmax: 435 ng/g
male, Dutch Belted, rabbit, iris-ciliary body (ICB), po, […], ICB (OU), male DB rabbits, Group 2, Day 15, […] BID oral (15 mg/kg/day)
  Cmax: 943 ng/g
[10]
  Cmax: 910 ng/mL
  half-life: 4.98 h
male, Dutch Belted, rabbit, plasma, po, 15 mg/kg, plasma, male DB rabbits, Group 3, Day 15, 15 mg/kg/dose BID oral (30 mg/kg/day), read-out: AUC0-12
  AUC(0-t): 3620 ng·h/mL
male, Dutch Belted, rabbit, plasma, po, 15 mg/kg, plasma, male DB rabbits, Group 3, Day 15, 15 mg/kg/dose BID oral (30 mg/kg/day), read-out: AUC0-24
  AUC(0-t): 4010 ng·h/mL
male, Dutch Belted, rabbit, plasma, po, 15 mg/kg, plasma, male DB rabbits, Group 3, Day 15, 15 mg/kg/dose BID oral (30 mg/kg/day), read-out: AUC0-240
  AUC(0-t): 4390 ng·h/mL
male, Dutch Belted, rabbit, plasma, po, 15 mg/kg, plasma, male DB rabbits, Group 3, Day 15, 15 mg/kg/dose BID oral (30 mg/kg/day), read-out: AUC0-t
  AUC(0-t): 4010 ng·h/mL
[11]
  Cmax: 423 ng/mL
  half-life: 6.01 h
male, Dutch Belted, rabbit, plasma, po, […], plasma, male DB rabbits, Group 1, Day 1, […] single oral dose, read-out: AUC0-12
  AUC(0-t): 1450 ng·h/mL
male, Dutch Belted, rabbit, plasma, po, […], plasma, male DB rabbits, Group 1, Day 1, […] single oral dose, read-out: AUC0-24
  AUC(0-t): 1560 ng·h/mL
male, Dutch Belted, rabbit, plasma, po, […], plasma, male DB rabbits, Group 1, Day 1, […] single oral dose, read-out: AUC0-240
  AUC(0-t): 1680 ng·h/mL
male, Dutch Belted, rabbit, plasma, po, […], plasma, male DB rabbits, Group 1, Day 1, […] single oral dose, read-out: AUC0-t
  AUC(0-t): 1560 ng·h/mL
[12]
  Cmax: 440 ng/mL
  half-life: 4.88 h
male, Dutch Belted, rabbit, plasma, po, […], plasma, male DB rabbits, Group 2, Day 15, […] BID oral (15 mg/kg/day), read-out: AUC0-12
  AUC(0-t): 1910 ng·h/mL
male, Dutch Belted, rabbit, plasma, po, […], plasma, male DB rabbits, Group 2, Day 15, […] BID oral (15 mg/kg/day), read-out: AUC0-24
  AUC(0-t): 2130 ng·h/mL
male, Dutch Belted, rabbit, plasma, po, […], plasma, male DB rabbits, Group 2, Day 15, […] BID oral (15 mg/kg/day), read-out: AUC0-240
  AUC(0-t): 2370 ng·h/mL
male, Dutch Belted, rabbit, plasma, po, […], plasma, male DB rabbits, Group 2, Day 15, […] BID oral (15 mg/kg/day), read-out: AUC0-t
  AUC(0-t): 2130 ng·h/mL
male, Dutch Belted, rabbit, retina, oral, […] BID, DB rabbits, Day 15, […] BID, read-out: Mean Retina Concentration
  concentration at 6 h: 97.9 ng/g
male, Dutch Belted, rabbit, retina, oral, […] BID, DB rabbits, Day 15, […] BID, 24 hr, read-out: Mean Retina Concentration
  concentration at 24 h: 44.3 ng/g
male, Dutch Belted, rabbit, retina, oral, […] BID, DB rabbits, Day 15, […] BID, 96 hr, read-out: Mean Retina Concentration
  concentration at 96 h: 13.9 ng/g
male, Dutch Belted, rabbit, retina, oral, […] BID, DB rabbits, Day 15, […] BID, 168 hr, read-out: Mean Retina Concentration
  concentration at 168 h: 10.7 ng/g
male, Dutch Belted, rabbit, retina, oral, […] BID, DB rabbits, Day 15, […] BID, 240 hr, read-out: Mean Retina Concentration
  concentration at 240 h: 7.18 ng/g
male, Dutch Belted, rabbit, retina, oral, […], DB rabbits, Day 1, […] single dose, read-out: Mean Retina Concentration
  concentration at 6 h: 27.5 ng/g
male, Dutch Belted, rabbit, retina, oral, […], DB rabbits, Day 1, […] single dose, 12 hr, read-out: Mean Retina Concentration
  concentration at 12 h: 16.5 ng/g
male, Dutch Belted, rabbit, retina, po, 15 mg/kg, Retina (OU), male DB rabbits, Group 3, Day 15, 15 mg/kg/dose BID oral (30 mg/kg/day)
  Cmax: 1290 ng/g
male, Dutch Belted, rabbit, retina, po, […], Retina (OU), male DB rabbits, Group 1, Day 1, […] single oral dose
  Cmax: 188 ng/g
male, Dutch Belted, rabbit, retina, po, […], Retina (OU), male DB rabbits, Group 2, Day 15, […] BID oral (15 mg/kg/day)
  Cmax: 306 ng/g
[13]
  Ctrough: 14.8 ng/mL
  DN AUC0-12: 194 (h*ng/mL)/(mg/kg/dose)
  DN AUC0-24: 208 (h*ng/mL)/(mg/kg/day)
  DN Cmax: 56.4 (ng/mL)/(mg/kg/day)
[14]
  Ctrough: 29.6 ng/mL
  DN AUC0-12: 255 (h*ng/mL)/(mg/kg/dose)
  DN AUC0-24: 284 (h*ng/mL)/(mg/kg/day)
  DN Cmax: 58.6 (ng/mL)/(mg/kg/day)
[15]
  Ctrough: 54.3 ng/mL
  DN AUC0-12: 242 (h*ng/mL)/(mg/kg/dose)
  DN AUC0-24: 267 (h*ng/mL)/(mg/kg/day)
  DN Cmax: 60.7 (ng/mL)/(mg/kg/day)
rabbits, single oral […] and BID ≥15 mg/kg/day
  Tolerability, clinical observations: well tolerated
